# Experimental data: patent US10927106B2, “Benzothiazole derivatives as DYRK1 inhibitors” (PHARMASUM THERAPEUTICS AS, priority 2017, dated 2021)
# Where two headings read alike, the source gives them in different places.
# Legend:
# Experiment in all cases: Kinase profiling, 33P ATP filter binding assay
# Type in all cases: biochemical
# HER4 = HER4 (Homo sapiens (Human), UniProt Q15303); conditions: 1 micromolar inhibitor concentration, read-out: percentage inhibition
# TSSK1 = TSSK1 (Homo sapiens (Human), UniProt Q9BXA7); conditions: 1 micromolar inhibitor concentration, read-out: percentage inhibition
# S6K1 = S6K1 (Homo sapiens (Human), UniProt P23443); conditions: 1 micromolar inhibitor concentration, read-out: percentage inhibition
# PRK2 = PRK2 (Homo sapiens (Human), UniProt Q16513); conditions: 1 micromolar inhibitor concentration, read-out: percentage inhibition
# NEK2a = NEK2a (Homo sapiens (Human), UniProt P51955); conditions: 1 micromolar inhibitor concentration, read-out: percentage inhibition
# TGFBR1 = TGFBR1 (Homo sapiens (Human), UniProt P36897); conditions: 1 micromolar inhibitor concentration, read-out: percentage inhibition
# MKK1 = MKK1 (Homo sapiens (Human), UniProt Q02750); conditions: 1 micromolar inhibitor concentration, read-out: percentage inhibition
# JNK1 = JNK1 (Homo sapiens (Human), UniProt P45983); conditions: 1 micromolar inhibitor concentration, read-out: percentage inhibition
# PKCy = PKCy (Homo sapiens (Human), UniProt P05129); conditions: 1 micromolar inhibitor concentration, read-out: percentage inhibition
# Lck = Lck (Homo sapiens (Human), UniProt P06239); conditions: 1 micromolar inhibitor concentration, read-out: percentage inhibition
# JAK2 = JAK2 (Homo sapiens (Human), UniProt O60674); conditions: 1 micromolar inhibitor concentration, read-out: percentage inhibition
# VEG-FR = VEG-FR (Homo sapiens (Human), UniProt P17948); conditions: 1 micromolar inhibitor concentration, read-out: percentage inhibition
# PIM1 = PIM1 (Homo sapiens (Human), UniProt P11309); conditions: 1 micromolar inhibitor concentration, read-out: percentage inhibition
# Sequence of PIM1 (P11309 whole entry, species assumed): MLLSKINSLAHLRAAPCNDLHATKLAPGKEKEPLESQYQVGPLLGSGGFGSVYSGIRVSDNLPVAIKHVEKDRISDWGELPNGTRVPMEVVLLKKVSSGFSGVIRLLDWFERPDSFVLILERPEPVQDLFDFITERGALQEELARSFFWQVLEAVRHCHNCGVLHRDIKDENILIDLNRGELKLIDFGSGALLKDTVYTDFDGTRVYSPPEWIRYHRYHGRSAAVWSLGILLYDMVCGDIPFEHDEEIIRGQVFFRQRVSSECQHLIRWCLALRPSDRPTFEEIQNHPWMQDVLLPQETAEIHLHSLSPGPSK
# MST4 = MST4 (Homo sapiens (Human), UniProt Q9P289); conditions: 1 micromolar inhibitor concentration, read-out: percentage inhibition
# Sequence of MST4 (Q9P289 whole entry, species assumed): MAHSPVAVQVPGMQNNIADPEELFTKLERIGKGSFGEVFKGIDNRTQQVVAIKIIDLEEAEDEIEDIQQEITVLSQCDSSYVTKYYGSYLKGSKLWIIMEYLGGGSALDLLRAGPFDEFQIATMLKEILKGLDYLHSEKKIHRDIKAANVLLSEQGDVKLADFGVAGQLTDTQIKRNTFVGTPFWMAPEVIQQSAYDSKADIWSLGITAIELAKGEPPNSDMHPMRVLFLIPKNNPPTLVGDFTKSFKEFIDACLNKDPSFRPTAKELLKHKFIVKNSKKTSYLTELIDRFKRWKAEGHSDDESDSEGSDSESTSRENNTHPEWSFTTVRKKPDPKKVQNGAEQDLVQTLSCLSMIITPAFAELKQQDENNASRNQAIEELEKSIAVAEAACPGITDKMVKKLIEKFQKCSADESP
# MNK2 = MNK2 (Homo sapiens (Human), UniProt Q9HBH9); conditions: 1 micromolar inhibitor concentration, read-out: percentage inhibition
# JNK3 = JNK3 (Homo sapiens (Human), UniProt P53779); conditions: 1 micromolar inhibitor concentration, read-out: percentage inhibition
# TTBK2 = TTBK2 (Homo sapiens (Human), UniProt Q6IQ55); conditions: 1 micromolar inhibitor concentration, read-out: percentage inhibition
# MST3 = MST3 (Homo sapiens (Human), UniProt Q9Y6E0); conditions: 1 micromolar inhibitor concentration, read-out: percentage inhibition
# CK2 = CK2 (Homo sapiens (Human), UniProt P68400); conditions: 1 micromolar inhibitor concentration, read-out: percentage inhibition
# Sequence of CK2 (P68400 whole entry): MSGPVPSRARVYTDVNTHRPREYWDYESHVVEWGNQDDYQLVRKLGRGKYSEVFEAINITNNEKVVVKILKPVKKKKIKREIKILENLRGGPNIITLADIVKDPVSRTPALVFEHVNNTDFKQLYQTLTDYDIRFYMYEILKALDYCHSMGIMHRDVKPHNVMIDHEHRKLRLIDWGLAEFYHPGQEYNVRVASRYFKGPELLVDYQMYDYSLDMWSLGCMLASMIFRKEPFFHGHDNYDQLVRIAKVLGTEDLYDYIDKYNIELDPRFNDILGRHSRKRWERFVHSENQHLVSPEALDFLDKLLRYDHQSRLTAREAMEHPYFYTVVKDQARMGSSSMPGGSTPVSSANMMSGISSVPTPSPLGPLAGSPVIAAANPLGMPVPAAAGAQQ
# PIM2 = PIM2 (Homo sapiens (Human), UniProt Q9P1W9); conditions: 1 micromolar inhibitor concentration, read-out: percentage inhibition
# ULK1 = ULK1 (Homo sapiens (Human), UniProt O75385); conditions: 1 micromolar inhibitor concentration, read-out: percentage inhibition
# Sequence of ULK1 (O75385 whole entry, species assumed): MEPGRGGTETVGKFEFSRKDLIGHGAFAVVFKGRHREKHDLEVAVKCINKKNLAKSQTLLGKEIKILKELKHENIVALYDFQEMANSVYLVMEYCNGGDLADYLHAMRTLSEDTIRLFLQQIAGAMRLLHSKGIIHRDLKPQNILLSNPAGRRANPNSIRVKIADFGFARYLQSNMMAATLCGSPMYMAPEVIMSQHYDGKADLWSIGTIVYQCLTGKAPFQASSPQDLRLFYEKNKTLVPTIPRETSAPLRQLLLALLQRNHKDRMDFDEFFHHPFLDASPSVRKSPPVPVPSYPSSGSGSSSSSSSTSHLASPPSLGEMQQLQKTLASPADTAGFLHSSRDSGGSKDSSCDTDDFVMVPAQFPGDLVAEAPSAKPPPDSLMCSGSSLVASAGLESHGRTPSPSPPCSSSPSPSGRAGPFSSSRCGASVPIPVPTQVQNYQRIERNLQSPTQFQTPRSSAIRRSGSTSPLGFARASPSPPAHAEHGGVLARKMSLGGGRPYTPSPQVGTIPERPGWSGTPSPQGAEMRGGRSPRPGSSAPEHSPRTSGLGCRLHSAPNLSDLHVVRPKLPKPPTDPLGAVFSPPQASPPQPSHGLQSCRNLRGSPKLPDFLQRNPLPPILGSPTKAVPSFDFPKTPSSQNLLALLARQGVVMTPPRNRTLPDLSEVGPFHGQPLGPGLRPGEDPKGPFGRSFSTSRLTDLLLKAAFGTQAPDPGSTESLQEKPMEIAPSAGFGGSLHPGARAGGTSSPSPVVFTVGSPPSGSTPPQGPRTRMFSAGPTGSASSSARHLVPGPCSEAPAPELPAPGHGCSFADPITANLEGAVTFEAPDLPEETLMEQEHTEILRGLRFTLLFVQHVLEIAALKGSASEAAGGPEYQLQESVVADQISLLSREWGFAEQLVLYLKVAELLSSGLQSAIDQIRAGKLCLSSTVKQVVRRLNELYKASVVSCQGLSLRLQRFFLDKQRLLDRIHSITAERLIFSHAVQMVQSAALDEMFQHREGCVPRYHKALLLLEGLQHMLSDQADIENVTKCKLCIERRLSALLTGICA
# EF2K = EF2K (Homo sapiens (Human), UniProt O00418); conditions: 1 micromolar inhibitor concentration, read-out: percentage inhibition
# TAK1 = TAK1 (Homo sapiens (Human), UniProt O43318); conditions: 1 micromolar inhibitor concentration, read-out: percentage inhibition
# MARK2 = MARK2 (Homo sapiens (Human), UniProt Q7KZI7); conditions: 1 micromolar inhibitor concentration, read-out: percentage inhibition
# HIPK1 = HIPK1 (Homo sapiens (Human), UniProt Q86Z02); conditions: 1 micromolar inhibitor concentration, read-out: percentage inhibition
# Aurora B = Aurora B (Homo sapiens (Human), UniProt Q96GD4); conditions: 1 micromolar inhibitor concentration, read-out: percentage inhibition
# TBK1 = TBK1 (Homo sapiens (Human), UniProt Q9UHD2); conditions: 1 micromolar inhibitor concentration, read-out: percentage inhibition
# CK1δ = CK1δ (Homo sapiens (Human), UniProt P48730); conditions: read-out: percentage inhibition
# Experimental: The determination of protein kinase inhibition was performed at the International Centre for Kinase Profiling at the University of Dundee, UK. […] The ATP concentrations were at or below the calculated Km for ATP for each particular kinase.
# PAK2 = PAK2 (Homo sapiens (Human), UniProt Q13177); conditions: 1 micromolar inhibitor concentration, read-out: percentage inhibition
# p38g MAPK = p38g MAPK (Homo sapiens (Human), UniProt P53778); conditions: 1 micromolar inhibitor concentration, read-out: percentage inhibition
# GCK = GCK (Homo sapiens (Human), UniProt Q12851); conditions: 1 micromolar inhibitor concentration, read-out: percentage inhibition
# ERK8 = ERK8 (Homo sapiens (Human), UniProt Q8TD08); conditions: 1 micromolar inhibitor concentration, read-out: percentage inhibition
# SRPK1 = SRPK1 (Homo sapiens (Human), UniProt Q96SB4); conditions: 1 micromolar inhibitor concentration, read-out: percentage inhibition
# PDK1 = PDK1 (Homo sapiens (Human), UniProt O15530); conditions: 1 micromolar inhibitor concentration, read-out: percentage inhibition
# Sequence of PDK1 (O15530 whole entry): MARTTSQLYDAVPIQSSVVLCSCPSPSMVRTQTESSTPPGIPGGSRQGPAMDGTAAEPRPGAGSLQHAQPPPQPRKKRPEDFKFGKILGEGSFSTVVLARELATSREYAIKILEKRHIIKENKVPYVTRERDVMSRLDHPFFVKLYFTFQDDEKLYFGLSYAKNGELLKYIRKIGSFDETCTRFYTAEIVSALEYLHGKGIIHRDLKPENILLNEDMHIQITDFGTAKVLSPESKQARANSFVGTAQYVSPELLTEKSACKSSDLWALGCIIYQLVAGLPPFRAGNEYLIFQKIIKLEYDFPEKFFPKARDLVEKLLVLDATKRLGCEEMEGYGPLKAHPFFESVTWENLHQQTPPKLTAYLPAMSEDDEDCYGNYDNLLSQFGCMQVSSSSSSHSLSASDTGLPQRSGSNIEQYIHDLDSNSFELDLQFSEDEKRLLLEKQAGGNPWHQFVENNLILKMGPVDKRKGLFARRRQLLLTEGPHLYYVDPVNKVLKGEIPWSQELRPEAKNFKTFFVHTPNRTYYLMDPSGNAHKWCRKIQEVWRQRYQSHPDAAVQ
# MAP4K3 = MAP4K3 (Homo sapiens (Human), UniProt Q8IVH8); conditions: 1 micromolar inhibitor concentration, read-out: percentage inhibition
# CK1y2 = CK1y2 (Homo sapiens (Human), UniProt P78368); conditions: 1 micromolar inhibitor concentration, read-out: percentage inhibition
# CAMK1 = CAMK1 (Homo sapiens (Human), UniProt Q14012); conditions: 1 micromolar inhibitor concentration, read-out: percentage inhibition
# Sequence of CAMK1 (Q14012 whole entry, species assumed): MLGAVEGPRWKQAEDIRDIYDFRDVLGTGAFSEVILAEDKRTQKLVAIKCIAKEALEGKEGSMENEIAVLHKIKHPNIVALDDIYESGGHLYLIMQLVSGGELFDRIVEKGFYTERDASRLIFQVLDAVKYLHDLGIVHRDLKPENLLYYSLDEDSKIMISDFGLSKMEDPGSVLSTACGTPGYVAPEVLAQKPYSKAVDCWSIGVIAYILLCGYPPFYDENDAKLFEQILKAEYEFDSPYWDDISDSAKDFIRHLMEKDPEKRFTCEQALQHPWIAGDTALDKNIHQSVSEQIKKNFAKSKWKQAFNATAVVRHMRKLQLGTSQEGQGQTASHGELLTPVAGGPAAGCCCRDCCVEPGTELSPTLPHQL
# PKD1 = PKD1 (Homo sapiens (Human), UniProt Q15139); conditions: 1 micromolar inhibitor concentration, read-out: percentage inhibition
# Sequence of PKD1 (Q15139 whole entry): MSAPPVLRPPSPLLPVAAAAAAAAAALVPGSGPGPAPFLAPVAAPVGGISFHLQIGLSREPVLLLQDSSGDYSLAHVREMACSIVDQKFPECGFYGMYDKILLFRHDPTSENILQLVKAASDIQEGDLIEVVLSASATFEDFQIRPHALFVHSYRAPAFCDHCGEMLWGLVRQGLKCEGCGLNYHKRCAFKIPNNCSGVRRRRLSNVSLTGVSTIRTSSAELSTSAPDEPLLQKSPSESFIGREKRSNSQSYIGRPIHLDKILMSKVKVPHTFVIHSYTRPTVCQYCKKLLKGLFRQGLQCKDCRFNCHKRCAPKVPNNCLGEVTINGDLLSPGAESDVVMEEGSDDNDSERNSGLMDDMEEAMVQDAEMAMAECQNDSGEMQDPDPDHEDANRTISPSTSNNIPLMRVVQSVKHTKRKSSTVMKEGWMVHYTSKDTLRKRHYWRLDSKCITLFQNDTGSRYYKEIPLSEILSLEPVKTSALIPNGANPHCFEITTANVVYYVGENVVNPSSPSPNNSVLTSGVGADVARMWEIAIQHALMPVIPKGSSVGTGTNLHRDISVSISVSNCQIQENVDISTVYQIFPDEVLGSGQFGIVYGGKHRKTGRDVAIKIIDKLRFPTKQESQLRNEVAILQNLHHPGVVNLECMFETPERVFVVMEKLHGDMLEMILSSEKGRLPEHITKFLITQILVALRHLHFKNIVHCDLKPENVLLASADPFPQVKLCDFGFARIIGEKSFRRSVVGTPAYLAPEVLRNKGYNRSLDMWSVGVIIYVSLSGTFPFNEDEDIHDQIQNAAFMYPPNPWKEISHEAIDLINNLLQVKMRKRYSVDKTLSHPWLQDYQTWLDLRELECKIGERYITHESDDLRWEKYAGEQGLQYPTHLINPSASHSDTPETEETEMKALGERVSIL
# Aurora A = Aurora A (Homo sapiens (Human), UniProt O14965); conditions: 1 micromolar inhibitor concentration, read-out: percentage inhibition
# DAPK1 = DAPK1 (Homo sapiens (Human), UniProt P53355); conditions: 1 micromolar inhibitor concentration, read-out: percentage inhibition
# Src = Src (Homo sapiens (Human), UniProt P12931); conditions: 1 micromolar inhibitor concentration, read-out: percentage inhibition
# IKKb = IKKb (Homo sapiens (Human), UniProt O14920); conditions: 1 micromolar inhibitor concentration, read-out: percentage inhibition
# Sequence of IKKb (O14920 whole entry, species assumed): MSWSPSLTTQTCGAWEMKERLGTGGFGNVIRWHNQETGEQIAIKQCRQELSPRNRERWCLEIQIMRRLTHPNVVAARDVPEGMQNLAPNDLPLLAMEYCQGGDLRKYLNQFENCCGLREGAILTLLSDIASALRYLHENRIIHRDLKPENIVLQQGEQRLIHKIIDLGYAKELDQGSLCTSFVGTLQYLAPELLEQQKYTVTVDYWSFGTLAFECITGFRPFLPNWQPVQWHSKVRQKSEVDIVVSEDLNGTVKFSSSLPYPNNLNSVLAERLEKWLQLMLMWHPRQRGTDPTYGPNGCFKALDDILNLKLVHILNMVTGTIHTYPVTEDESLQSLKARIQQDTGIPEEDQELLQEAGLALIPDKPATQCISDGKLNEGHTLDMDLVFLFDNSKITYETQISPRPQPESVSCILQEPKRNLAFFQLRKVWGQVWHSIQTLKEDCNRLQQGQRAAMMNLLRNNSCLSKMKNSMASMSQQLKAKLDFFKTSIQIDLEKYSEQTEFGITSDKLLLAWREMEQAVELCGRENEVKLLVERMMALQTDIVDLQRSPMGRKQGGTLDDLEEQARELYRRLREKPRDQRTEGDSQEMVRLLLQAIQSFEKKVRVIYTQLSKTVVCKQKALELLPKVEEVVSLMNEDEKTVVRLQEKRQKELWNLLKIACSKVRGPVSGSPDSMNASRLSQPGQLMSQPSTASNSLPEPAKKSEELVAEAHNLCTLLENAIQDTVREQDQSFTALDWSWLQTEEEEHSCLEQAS
structure (smiles),measurement,setting,value
"CS(=O)(=O)Nc1cncc(-c2nc3cc(O)ccc3s2)c1 [4-99, N-(5-(5-Hydroxybenzo[d]thiazol-2-yl)pyridin-3-yl)methanesulfonamide]",inhibition at 1 µM,HER4,0%
same,inhibition at 1 µM,TSSK1,0%
same,inhibition at 1 µM,S6K1,0%
same,inhibition at 1 µM,PRK2,0%
same,inhibition at 1 µM,NEK2a,0%
same,inhibition at 1 µM,TGFBR1,0%
same,inhibition at 1 µM,MKK1,0%
same,inhibition at 1 µM,JNK1,0%
same,inhibition at 1 µM,PKCy,0%
same,inhibition at 1 µM,Lck,0%
same,inhibition at 1 µM,JAK2,0%
same,inhibition at 1 µM,VEG-FR,0%
same,inhibition at 1 µM,PIM1,0%
same,inhibition at 1 µM,MST4,0%
same,inhibition at 1 µM,MNK2,0%
same,inhibition at 1 µM,JNK3,0%
same,inhibition at 1 µM,TTBK2,0%
same,inhibition at 1 µM,MST3,0%
same,inhibition at 1 µM,CK2,6%
same,inhibition at 1 µM,PIM2,0%
same,inhibition at 1 µM,ULK1,0%
same,inhibition at 1 µM,EF2K,0%
same,inhibition at 1 µM,TAK1,8%
same,inhibition at 1 µM,MARK2,0%
same,inhibition at 1 µM,HIPK1,0%
same,inhibition at 1 µM,Aurora B,0%
same,inhibition at 1 µM,TBK1,0%
same,inhibition at 1 µM,"CK1δ; CK1δ, 1 micromolar inhibitor concentration",8%
same,inhibition at 1 µM,PAK2,0%
same,inhibition at 1 µM,p38g MAPK,0%
same,inhibition at 1 µM,GCK,0%
same,inhibition at 1 µM,ERK8,0%
same,inhibition at 1 µM,SRPK1,0%
same,inhibition at 1 µM,PDK1,0%
same,inhibition at 1 µM,MAP4K3,0%
same,inhibition at 1 µM,CK1y2,0%
same,inhibition at 1 µM,CAMK1,0%
same,inhibition at 1 µM,PKD1,0%
same,inhibition at 1 µM,Aurora A,0%
same,inhibition at 1 µM,DAPK1,0%
same,inhibition at 1 µM,Src,0%
same,inhibition at 1 µM,IKKb,0%
"COc1ccc2sc(-c3cncc(NC(C)=O)c3)nc2c1 [4-93, N-(5-(5-Methoxybenzo[d]thiazol-2-yl)pyridin-3-yl)acetamide]",inhibition at 1 µM,HER4,0%
same,inhibition at 1 µM,TSSK1,0%
same,inhibition at 1 µM,S6K1,0%
same,inhibition at 1 µM,PRK2,0%
same,inhibition at 1 µM,NEK2a,0%
same,inhibition at 1 µM,TGFBR1,0%
same,inhibition at 1 µM,MKK1,0%
same,inhibition at 1 µM,JNK1,0%
same,inhibition at 1 µM,PKCy,0%
same,inhibition at 1 µM,Lck,7%
same,inhibition at 1 µM,JAK2,0%
same,inhibition at 1 µM,VEG-FR,0%
same,inhibition at 1 µM,PIM1,2%
same,inhibition at 1 µM,MST4,0%
same,inhibition at 1 µM,MNK2,0%
same,inhibition at 1 µM,JNK3,0%
same,inhibition at 1 µM,TTBK2,0%
same,inhibition at 1 µM,MST3,0%
same,inhibition at 1 µM,CK2,0%
same,inhibition at 1 µM,PIM2,0%
same,inhibition at 1 µM,ULK1,0%
same,inhibition at 1 µM,EF2K,0%
same,inhibition at 1 µM,TAK1,52%
same,inhibition at 1 µM,MARK2,0%
same,inhibition at 1 µM,HIPK1,0%
same,inhibition at 1 µM,Aurora B,0%
same,inhibition at 1 µM,TBK1,0%
same,inhibition at 1 µM,CK1δ,1%
same,inhibition at 1 µM,PAK2,0%
same,inhibition at 1 µM,p38g MAPK,0%
same,inhibition at 1 µM,GCK,0%
same,inhibition at 1 µM,ERK8,11%
same,inhibition at 1 µM,SRPK1,0%
same,inhibition at 1 µM,PDK1,0%
same,inhibition at 1 µM,MAP4K3,0%
same,inhibition at 1 µM,CK1y2,0%
same,inhibition at 1 µM,CAMK1,0%
same,inhibition at 1 µM,PKD1,0%
same,inhibition at 1 µM,Aurora A,0%
same,inhibition at 1 µM,DAPK1,0%
same,inhibition at 1 µM,Src,0%
same,inhibition at 1 µM,IKKb,0%
